Where two headings read alike, the source gives them in different places.
How the values were obtained:
[1] = test system: Mycosphaerella graminicola; Anamorph: Septoria tritici; Bayer Code SEPTTR; assay: Leaf blotch of wheat, foliar fungicide treatment, one day protectant (1DP) or three day curative (3DC); assay type: in vivo, Septoria tritici on wheat plants (variety Yuma); conditions: Zymoseptoria tritici, percent disease control rating
[2] = test system: Cercospora beticola; Bayer Code CERCBE; assay: Leaf spot of sugar beets; assay type: in vivo, Cercospora beticola on sugar beets (variety HH-88); conditions: 24 h, % disease control rating, one day protectant; for pest or weed control at 25 ppm: read-out: CERCBE 1 DP 25 ppm; for pest or weed control at 75 ppm: read-out: CERCBE 1 DP 75 ppm
[3] = test system: Venturia inaequalis; Bayer Code VENTIN; assay: Apple scab; assay type: in vivo; conditions: 24 h, % disease control rating, one day protectant; for pest or weed control at 25 ppm: read-out: VENTIN 1 DP 25 ppm; for pest or weed control at 75 ppm: read-out: VENTIN 1 DP 75 ppm
[4] = 24 h, one day protectant (1DP), read-out: SETTTR 1DP 25 ppm
[5] = 24 h, one day protectant (1DP), read-out: SEPTTR 1DP 100 ppm
[6] = 72 h, three day curative (3DC), read-out: SEPTTR 3DC 25 ppm
[7] = 72 h, three day curative (3DC), read-out: SEPTTR 3DC 100 ppm

Structure (SMILES) | pest or weed control at 25 ppm [1, 4] | pest or weed control at 100 ppm [1, 5] | pest or weed control at 25 ppm [1, 6] | pest or weed control at 100 ppm [1, 7] | pest or weed control at 25 ppm [2] | pest or weed control at 75 ppm [2] | pest or weed control at 25 ppm [3] | pest or weed control at 75 ppm [3]
C/C(=N\Oc1ncc(F)c(N)n1)c1ccccc1 [Compound 4, 1-Phenyl-ethanone-O-(4-amino-5-fluoropyrimidin-2-yl)oxime] | 76 to 100% | 76 to 100% | 76 to 100% | 76 to 100% | 76 to 100% | 76 to 100% | 76 to 100% | 76 to 100%
CN1CCN(CNc2nc(OCc3ccc(F)cc3)ncc2F)CC1 [Compound 7, [5-Fluoro-2-(4-fluorobenzyloxy)pyrimidin-4-yl]-(4-methylpiperazin-1-ylmethyl)amine] | 76 to 100% | 76 to 100% | 76 to 100% | 76 to 100% | 51 to 75% | 51 to 75% | 76 to 100% | 76 to 100%
CCOC(=O)C(=O)Nc1nc(OCc2ccc(F)cc2)ncc1F [Compound 11, N-[5-Fluoro-2-(4-fluorobenzyloxy)pyrimidin-4-yl]oxalamic acid ethyl ester] | 76 to 100% | 76 to 100% | 76 to 100% | 76 to 100% | 0 to 25% | 0 to 25% | 76 to 100% | 76 to 100%
CCC(Nc1nc(OCc2ccc(F)cc2)ncc1F)OC (centres unmarked) [Compound 14, [5-Fluoro-2-(4-fluorobenzyloxy)pyrimidin-4-yl](1-methoxypropyl)amine] | 76 to 100% | 76 to 100% | 76 to 100% | 76 to 100% | 0 to 25% | 0 to 25% | 76 to 100% | 76 to 100%
N#CN/C=N/c1nc(OCc2ccc(F)cc2)ncc1F [Compound 23, N-[5-Fluoro-2-(4-fluorobenzyloxy)pyrimidin-4-yl]-N′-cyanoformamidine] | 76 to 100% | 76 to 100% | 76 to 100% | 76 to 100% | 0 to 25% | 51 to 75% | 51 to 75% | 76 to 100%
CC/C(=N\c1nc(OCc2ccc(F)cc2)ncc1F)N(C)C [Compound 24, N′-[5-Fluoro-2-(4-fluorobenzyloxy)pyrimidin-4-yl]-N,N-dimethyl-propionamidine] | 76 to 100% | 76 to 100% | 76 to 100% | 76 to 100% | 0 to 25% | 0 to 25% | 26 to 50% | 76 to 100%
CCCNC(=O)N(C(=O)NCCC)c1nc(OCc2cccc(OC)c2)ncc1F [Compound 36, 1-[5-Fluoro-2-(3-methoxybenzyloxy)pyrimidin-4-yl](3′-propylcarbamoyl)-3-propyl-urea] | 26 to 50% | 76 to 100% | 51 to 75% | 76 to 100% | 51 to 75% | 51 to 75% | 51 to 75% | 76 to 100%
Nc1nc(OC(Cc2ccccc2)c2ccc(F)cc2)ncc1F (centres unmarked) [Compound 61] | 76 to 100% | 76 to 100% | 0 to 25% | 0 to 25% | 0 to 25% | 0 to 25% | 76 to 100% | 51 to 75%
CCCCCCOc1ncc(F)c(/N=C/N(C)C)n1 [Compound 68] | 0 to 25% | 51 to 75% | 0 to 25% | 51 to 75% | 51 to 75% | 51 to 75% | 51 to 75% | 76 to 100%
Nc1nc(OCc2coc(Cc3ccccc3)c2)ncc1F [Compound 69] | 76 to 100% | 76 to 100% | 51 to 75% | 76 to 100% | 0 to 25% | 26 to 50% | 51 to 75% | 76 to 100%
Nc1nc(OCc2ccc(OCC(F)(F)F)nc2)ncc1F [Compound 79] | 76 to 100% | 76 to 100% | 76 to 100% | 76 to 100% | 0 to 25% | 26 to 50% | 26 to 50% | 26 to 50%
CC(Oc1ncc(F)c(NCOCc2ccccc2)n1)c1ccc(F)cc1 (centres unmarked) [Compound 121] | 51 to 75% | 76 to 100% | 51 to 75% | 76 to 100% | 0 to 25% | 0 to 25% | 76 to 100% | 26 to 50%
CCCNC(=S)Nc1nc(OCc2ccn(C)n2)ncc1F [Compound 122] | 0 to 25% | 51 to 75% | 26 to 50% | 76 to 100% | 26 to 50% | 26 to 50% | 76 to 100% | 76 to 100%
O=[N+]([O-])c1ccccc1SNc1nc(OCc2cc(C(F)(F)F)cc(C(F)(F)F)c2)ncc1F [Compound 125] | 26 to 50% | 26 to 50% | 0 to 25% | 0 to 25% | 26 to 50% | 26 to 50% | 26 to 50% | 76 to 100%
Fc1ccc(COc2ccc(F)c(NC(=S)Nc3ccccc3F)c2)cc1 [Compound 135] | 76 to 100% | 76 to 100% | 51 to 75% | 76 to 100% | 26 to 50% | 26 to 50% | 51 to 75% | 51 to 75%
CCCCCCOc1ncc(F)c(N)n1 [Compound 137] | 26 to 50% | 76 to 100% | 26 to 50% | 76 to 100% | 0 to 25% | 0 to 25% | 0 to 25% | 76 to 100%
Nc1nc(OCc2nc(Cl)ccc2Cl)ncc1F [Compound 141] | 0 to 25% | 76 to 100% | 51 to 75% | 26 to 50% | 0 to 25% | 0 to 25% | 0 to 25% | 26 to 50%
CNc1nc(OCc2ccc(OC)c(C(F)(F)F)c2)ncc1F [Compound 155] | 51 to 75% | 76 to 100% | 76 to 100% | 76 to 100% | 0 to 25% | 0 to 25% | 26 to 50% | 0 to 25%
O=C(Nc1nc(OCc2cccc(F)c2)ncc1F)c1ccccc1 [Compound 158] | 76 to 100% | 76 to 100% | 76 to 100% | 76 to 100% | 0 to 25% | 0 to 25% | 51 to 75% | 51 to 75%
CCCNC(=O)Nc1nc(OCc2cccc(C#N)c2)ncc1F [Compound 163] | 0 to 25% | 0 to 25% | 0 to 25% | 0 to 25% | 0 to 25% | 0 to 25% | 0 to 25% | 26 to 50%
CN(Cc1ccccc1F)c1nc(OCc2ccc(F)cc2)ncc1F [Compound 164] | 26 to 50% | 51 to 75% | 0 to 25% | 51 to 75% | 0 to 25% | 0 to 25% | 26 to 50% | 51 to 75%
Fc1ccccc1CNC(=S)Nc1nc(OCc2cccs2)ncc1F [Compound 169] | 51 to 75% | 76 to 100% | 0 to 25% | 0 to 25% | 0 to 25% | 0 to 25% | 51 to 75% | 26 to 50%
O=C(Nc1nc(OCc2cccc(F)c2)ncc1F)OCc1ccc([N+](=O)[O-])cc1 [Compound 180] | 0 to 25% | 51 to 75% | 0 to 25% | 0 to 25% | 0 to 25% | 26 to 50% | 26 to 50% | 0 to 25%
CCOC(=O)COc1ncc(F)c(N)n1 [Compound 221] |  |  |  |  | 26 to 50% | 51 to 75% | 0 to 25% | 26 to 50%

— patent publication US9204653B2, “5-fluoro pyrimidine derivatives” (DOW AGROSCIENCES LLC, priority 2008, dated 2015)
